# Values quoted from earlier work in paper PMC10769797 (The Oncologist, 2023).
# Columns and labels:
# [1] = test system: patients with advanced solid tumors; conditions: phase I study; cited from earlier work
# POLR2A expression = conditions: cited from earlier work
smiles,measurement,setting,value
CC1(C)CC[C@H](Nc2ncc(C(F)(F)F)c(-c3c[nH]c4c(P(C)(C)=O)c(C#N)ccc34)n2)CN1 [SY-5609],DLTs,[1],"cytopenia, gastrointestinal toxicity, and hypotension"
same,Most frequent TEAEs,[1],"gastrointestinal toxicity, fatigue, thrombocytopenia, and anemia"
same,POLR2A expression change compared with baseline,POLR2A expression; CDK7-target occupancy up to 100%,4-5 fold
same,POLR2A expression change in PBMCs,POLR2A expression; at 75% CDK7-target occupancy,approximately 2.5 fold
